Measured values taken from EP0300812A2, “Platinum triamine antitumor agents containing saturated amines” (ENGELHARD CORPORATION, priority 1987, dated 1989).
Where “and” joins values, the source holds several entries; their conditions need not be identical. Equal entries are not always repeated.

Columns and labels:
Sarcoma 180 ascites = Sarcoma 180 ascites antitumor screening; assay type: in vivo, Female CFW mice; details: for %ILS: ILS ≧ 50% indicates activity; for Surv.: survivors per 6 mice at twice the MST of controls
Procedure: (§1) Each compound was evaluated in at least one of these screens.
Female CFW mice (18 - 25 g) were implanted with 2 x 10⁶ cells ip on day zero. Compounds were administered in 0.5 mL water ip on day one. Groups of 6 mice were used for each test dose as well as controls as defined above. The test was run for twice the MST of the control group, with survivors counted as dying on that day. An ILS of ≧ 50% indicates activity. The tumor line was maintained through weekly transfer of 4 x 10⁶ cells in CFW mice.

L1210 Leukemia = assay: L1210 leukemia antitumor screening; assay type: in vivo, Female CDF₁ mice; details: for %ILS: ILS ≧ 25% represents activity; for Surv.: survivors per 6 mice at three times the MST of controls
Procedure: as §1
L1210 screening was conducted according to a published method. See Rose, W.C.; Schurig, J.F.; Huftalen, J.B.; Bradner, W.T. Cancer Treat. Rep. […] Female CDF₁ mice (16 - 22 g) were implanted with 1 x 10⁶ tumor cells ip on day zero. Compounds were administered in 0.5 mL water ip on day one. Groups of 6 mice were used for each dose. A control group received only tumor and 0.5 mL water. A positive control group received tumor and 8 mg/kg cisplatin in 0.5 mL of 0.15 M NaCl. The test was terminated after three times the mean survival time (MST) of the control group, surviving mice were counted as dying on that day. Activity was determined based on the percent increase in MST of test mice over controls (%ILS). […] The tumor line was maintained through weekly transfer of 5 x 10⁴ cells in DBA/2 mice.

[1] = S180a, dose 10 mg/kg ip in water on day one
[2] = S180a, dose 20 mg/kg ip in water on day one
[3] = S180a, dose 40 mg/kg ip in water on day one
[4] = S180a, dose 80 mg/kg ip in water on day one
[5] = S180a, dose 160 mg/kg ip in water on day one
[6] = S180a, dose 320 mg/kg ip in water on day one

cis-[Pt(NH₃)₂Cl₂] [Positive Control, reference compound]
Positive Control %ILS (Sarcoma 180 ascites; S180a, positive control 8 mg/kg cisplatin in 0.15 M NaCl ip): 65% and 80% | Positive Control Surv. (Sarcoma 180 ascites; S180a, positive control 8 mg/kg cisplatin in 0.15 M NaCl ip, survivors per 6 mice): 1/6 and 3/6 | Positive Control %ILS (L1210 Leukemia; L1210, positive control 8 mg/kg cisplatin in 0.15 M NaCl ip): 149% | Positive Control Surv. (L1210 Leukemia; L1210, positive control 8 mg/kg cisplatin in 0.15 M NaCl ip, survivors per 6 mice): 2/6

CC1CCNCC1.N.N.O=[N+]([O-])[O-].[Cl-].[Pt+2] [cis-[Pt(NH3)2(4-methylpiperidine)Cl]NO3, cis-[Pt(NH₃)₂(4-methylpiperidine)Cl]NO₃]
%ILS (Sarcoma 180 ascites; [1]): 4% | Surv. (Sarcoma 180 ascites; S180a, dose 10 mg/kg ip): 0/6 | %ILS (Sarcoma 180 ascites; [2]): 13% | Surv. (Sarcoma 180 ascites; S180a, dose 20 mg/kg ip): 0/6 | %ILS (Sarcoma 180 ascites; [3]): 18% | Surv. (Sarcoma 180 ascites; S180a, dose 40 mg/kg ip): 0/6 | %ILS (Sarcoma 180 ascites; [4]): 76% | Surv. (Sarcoma 180 ascites; S180a, dose 80 mg/kg ip): 1/6 | %ILS (Sarcoma 180 ascites; [5]): 4% | Surv. (Sarcoma 180 ascites; S180a, dose 160 mg/kg ip): 1/6 | %ILS (Sarcoma 180 ascites; [6]): -80% | Surv. (Sarcoma 180 ascites; S180a, dose 320 mg/kg ip): 0/6 | %ILS (L1210 Leukemia; L1210, dose 10 mg/kg ip in water on day one): 24% | Surv. (L1210 Leukemia; L1210, dose 10 mg/kg ip): 0/6 | %ILS (L1210 Leukemia; L1210, dose 20 mg/kg ip in water on day one): 17% | Surv. (L1210 Leukemia; L1210, dose 20 mg/kg ip): 0/6 | %ILS (L1210 Leukemia; L1210, dose 40 mg/kg ip in water on day one): 60% | Surv. (L1210 Leukemia; L1210, dose 40 mg/kg ip): 0/6 | %ILS (L1210 Leukemia; L1210, dose 80 mg/kg ip in water on day one): 57% | Surv. (L1210 Leukemia; L1210, dose 80 mg/kg ip): 0/6 | %ILS (L1210 Leukemia; L1210, dose 160 mg/kg ip in water on day one): -28% | Surv. (L1210 Leukemia; L1210, dose 160 mg/kg ip): 0/6 | %ILS (L1210 Leukemia; L1210, dose 320 mg/kg ip in water on day one): -68% | Surv. (L1210 Leukemia; L1210, dose 320 mg/kg ip): 0/6

O=[N+]([O-])[O-].[NH3+][Pt-2]([NH3+])([Cl])[NH2+]CC1CCCCC1 (stereo not drawn) [cis-[Pt(NH₃)₂(cyclohexanemethylamine)Cl]NO₃]
%ILS (Sarcoma 180 ascites; [1]): 15% | Surv. (Sarcoma 180 ascites; S180a, dose 10 mg/kg ip): 0/6 | %ILS (Sarcoma 180 ascites; [2]): 22% | Surv. (Sarcoma 180 ascites; S180a, dose 20 mg/kg ip): 0/6 | %ILS (Sarcoma 180 ascites; [3]): 19% | Surv. (Sarcoma 180 ascites; S180a, dose 40 mg/kg ip): 1/6 | %ILS (Sarcoma 180 ascites; [4]): 61% | Surv. (Sarcoma 180 ascites; S180a, dose 80 mg/kg ip): 0/6 | %ILS (Sarcoma 180 ascites; [5]): -78% | Surv. (Sarcoma 180 ascites; S180a, dose 160 mg/kg ip): 0/6 | %ILS (Sarcoma 180 ascites; [6]): -94% | Surv. (Sarcoma 180 ascites; S180a, dose 320 mg/kg ip): 0/6

CCCCCCCC[NH2+][Pt-2]([NH3+])([NH3+])[Cl].O=[N+]([O-])[O-] [cis-[Pt(NH3)2(octylamine)Cl]NO3, cis-[Pt(NH₃)₂(octylamine)Cl]NO₃]
%ILS (Sarcoma 180 ascites; [1]): 16% | Surv. (Sarcoma 180 ascites; S180a, dose 10 mg/kg ip): 0/6 | %ILS (Sarcoma 180 ascites; [2]): 25% | Surv. (Sarcoma 180 ascites; S180a, dose 20 mg/kg ip): 0/6 | %ILS (Sarcoma 180 ascites; [3]): 22% | Surv. (Sarcoma 180 ascites; S180a, dose 40 mg/kg ip): 0/6 | %ILS (Sarcoma 180 ascites; [4]): -78% | Surv. (Sarcoma 180 ascites; S180a, dose 80 mg/kg ip): 0/6 | %ILS (Sarcoma 180 ascites; [5]): -78% | Surv. (Sarcoma 180 ascites; S180a, dose 160 mg/kg ip): 0/6 | %ILS (Sarcoma 180 ascites; [6]): -95% | Surv. (Sarcoma 180 ascites; S180a, dose 320 mg/kg ip): 0/6 | activity in the S-180 ascites screen (Sarcoma 180 ascites; statement in words): substantially no activity
